The target of test [1] is T1, PRKAA2 (Homo sapiens, UniProt P54646).
T1 construct: purchased Eurofins DiscoverX Corporation
The test can be described thus: DiscoverX scanMAX competition binding assay. Conditions: read-out: % inhibition in the DiscoverX scanMAX panel at 1 μM. From the text: (§1) Based on its narrow profile when tested in the combined Nanosyn and TSA panels, GW296115 was included in the recently released Kinase Chemogenomic Set (KCGS)[15]. All of the data presented in the Introduction section was collected prior to the inclusion of GW296115 in KCGS and everything that follows has been subsequently generated. Since its inclusion in PKIS and more recently KCGS, we have carried out a broader round of screening at DiscoverX. This profiling data has not been previously released and is reported here for the first time. GW296115 was profiled against 403 wild type human kinases at 1 μM using the DiscoverX scanMAX screening platform, which employs an active site-directed competition binding assay to quantitatively measure interactions between test compounds and kinases, [16]. GW296115 inhibited 25 kinases > 90% at 1 μM, resulting in a selectivity index (S10) of 0.062 at 1 μM (Table S2, Fig. 1C)[17].
To ascertain selectivity of GW296115 and validate our DiscoverX screening results using an orthogonal assay format, we chose to utilize Eurofins enzymatic kinase assays in dose–response at the Km of ATP.
(§2) The scanMAX assays were performed at Eurofins DiscoverX Corporation as previously described.

Test [2] concerns the target T2, CHEK1 (Homo sapiens, UniProt O14757).
T2 construct: purchased Eurofins DiscoverX Corporation
The test is described as follows: DiscoverX scanMAX competition binding assay. The note with it: read-out: % inhibition at 1 μM.

In test [3] the target is T3, MAP2K5/MEK5 (Homo sapiens, UniProt Q13163).
T3 construct: purchased Eurofins
The test is described as follows: Eurofins kinase enzymatic LANCE assay. In kind it is biochemical. From the text:
Due to our interest in the activity of GW296115 on several understudied IDG kinases, we collected full dose–response curves for all wild type kinases inhibited ≥ 75% in the DiscoverX panel that were offered by Eurofins. Having data in orthogonal formats is a powerful way to confirm inhibitory activity and adds rigor to our results. Eurofins has kinase enzymatic radiometric assays for 35 of the kinases on this list (Table S2) and a kinase enzymatic LANCE assay for one additional kinase (MAP2K5/MEK5).
Eurofins kinase enzymatic radiometric assays were carried out at the Km of ATP in dose–response (9-pt curve in duplicate) for each kinase for which it was offered.

For test [4], the system named is cytoplasmic domain of PDGFR. Also on record: method as in PMID 10048786. Conditions: in vitro; read-out: IC50, autophosphorylation of the cytoplasmic domain of PDGFR in vitro; cited from earlier work.
Test [5] has as its system RSK3. Also on record: method as in earlier work. The note with it: cited from earlier work.
Test [6] concerns the target T4, BRSK2 (Homo sapiens, UniProt Q8IWQ3).
T4 sequence (Q8IWQ3 1-736): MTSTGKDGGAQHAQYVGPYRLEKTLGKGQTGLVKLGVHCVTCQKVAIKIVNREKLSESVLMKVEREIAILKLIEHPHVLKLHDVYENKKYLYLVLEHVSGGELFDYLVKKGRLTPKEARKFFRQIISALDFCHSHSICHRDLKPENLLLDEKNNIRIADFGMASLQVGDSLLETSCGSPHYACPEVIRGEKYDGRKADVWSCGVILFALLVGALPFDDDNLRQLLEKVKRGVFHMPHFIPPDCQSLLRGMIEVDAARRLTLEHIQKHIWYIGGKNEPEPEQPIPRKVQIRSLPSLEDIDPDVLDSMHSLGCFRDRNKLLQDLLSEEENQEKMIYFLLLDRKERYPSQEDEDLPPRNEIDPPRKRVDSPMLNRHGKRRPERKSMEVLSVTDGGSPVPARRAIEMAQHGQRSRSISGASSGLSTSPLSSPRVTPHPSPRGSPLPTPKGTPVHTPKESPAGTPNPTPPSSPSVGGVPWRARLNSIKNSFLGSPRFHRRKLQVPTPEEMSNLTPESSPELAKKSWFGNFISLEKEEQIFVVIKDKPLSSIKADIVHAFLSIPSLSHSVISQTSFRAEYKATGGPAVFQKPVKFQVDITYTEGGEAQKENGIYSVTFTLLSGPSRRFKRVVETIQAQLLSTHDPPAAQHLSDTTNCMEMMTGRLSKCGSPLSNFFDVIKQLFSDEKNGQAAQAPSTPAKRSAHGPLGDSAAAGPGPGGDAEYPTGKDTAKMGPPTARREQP
The test is described as follows: DiscoverX scanMAX competition binding assay. Also on record: purchased Eurofins DiscoverX Corporation.
From the text: as §1, §2

In test [7] the target is DMPK (Homo sapiens, UniProt Q09013). The test is described as follows: DiscoverX scanMAX competition binding assay. Further details: purchased Eurofins DiscoverX Corporation.
From the text: as §1, §2

Test [8] addresses PHKG1 (Homo sapiens, UniProt Q16816). The test is described as follows: DiscoverX scanMAX competition binding assay. Also on record: purchased Eurofins DiscoverX Corporation.
From the text: as §1, §2

For test [9], the target named is PIM2 (Homo sapiens, UniProt Q9P1W9). The test is described as follows: DiscoverX scanMAX competition binding assay. Further details: purchased Eurofins DiscoverX Corporation.
From the text: as §1, §2

Test [10] concerns the target T5, BRSK1 (Homo sapiens, UniProt Q8TDC3).
T5 sequence (Q8TDC3 1-778): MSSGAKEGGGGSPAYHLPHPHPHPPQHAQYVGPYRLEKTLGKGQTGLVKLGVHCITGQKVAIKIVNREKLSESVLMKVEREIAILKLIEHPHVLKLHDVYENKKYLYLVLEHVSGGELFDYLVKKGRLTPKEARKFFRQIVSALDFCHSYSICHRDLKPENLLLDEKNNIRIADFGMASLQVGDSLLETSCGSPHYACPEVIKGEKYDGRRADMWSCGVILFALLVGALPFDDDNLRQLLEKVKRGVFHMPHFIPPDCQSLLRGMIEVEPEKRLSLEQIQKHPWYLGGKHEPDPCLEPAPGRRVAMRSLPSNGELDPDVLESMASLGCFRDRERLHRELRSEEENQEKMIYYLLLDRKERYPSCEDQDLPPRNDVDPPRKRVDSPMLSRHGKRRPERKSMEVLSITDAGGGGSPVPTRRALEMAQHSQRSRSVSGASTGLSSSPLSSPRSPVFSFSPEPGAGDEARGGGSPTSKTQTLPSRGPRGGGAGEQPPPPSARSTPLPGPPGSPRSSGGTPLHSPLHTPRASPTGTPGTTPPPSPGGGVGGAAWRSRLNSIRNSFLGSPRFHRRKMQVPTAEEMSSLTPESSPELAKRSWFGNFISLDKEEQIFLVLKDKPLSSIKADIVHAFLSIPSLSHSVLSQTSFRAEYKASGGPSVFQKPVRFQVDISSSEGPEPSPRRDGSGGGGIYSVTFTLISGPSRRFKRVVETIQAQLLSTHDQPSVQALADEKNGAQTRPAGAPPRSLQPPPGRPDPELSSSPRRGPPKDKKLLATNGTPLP
Also on record: purchased Eurofins DiscoverX Corporation; method as in earlier work. Conditions: cited from earlier work.

Some results are limits rather than exact numbers.

Chain of PHKG1 (Q16816 whole entry): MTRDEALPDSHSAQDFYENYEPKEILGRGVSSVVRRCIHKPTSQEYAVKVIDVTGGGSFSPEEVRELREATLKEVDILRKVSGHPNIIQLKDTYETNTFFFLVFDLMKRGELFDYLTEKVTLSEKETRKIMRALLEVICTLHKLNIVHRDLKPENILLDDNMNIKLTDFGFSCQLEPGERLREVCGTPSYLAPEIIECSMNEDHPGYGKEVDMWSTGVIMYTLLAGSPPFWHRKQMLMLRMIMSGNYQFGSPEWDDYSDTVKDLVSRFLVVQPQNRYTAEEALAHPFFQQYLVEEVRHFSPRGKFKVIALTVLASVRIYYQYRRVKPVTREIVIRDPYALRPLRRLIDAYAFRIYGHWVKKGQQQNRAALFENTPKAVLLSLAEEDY
Chain of DMPK (Q09013 whole entry): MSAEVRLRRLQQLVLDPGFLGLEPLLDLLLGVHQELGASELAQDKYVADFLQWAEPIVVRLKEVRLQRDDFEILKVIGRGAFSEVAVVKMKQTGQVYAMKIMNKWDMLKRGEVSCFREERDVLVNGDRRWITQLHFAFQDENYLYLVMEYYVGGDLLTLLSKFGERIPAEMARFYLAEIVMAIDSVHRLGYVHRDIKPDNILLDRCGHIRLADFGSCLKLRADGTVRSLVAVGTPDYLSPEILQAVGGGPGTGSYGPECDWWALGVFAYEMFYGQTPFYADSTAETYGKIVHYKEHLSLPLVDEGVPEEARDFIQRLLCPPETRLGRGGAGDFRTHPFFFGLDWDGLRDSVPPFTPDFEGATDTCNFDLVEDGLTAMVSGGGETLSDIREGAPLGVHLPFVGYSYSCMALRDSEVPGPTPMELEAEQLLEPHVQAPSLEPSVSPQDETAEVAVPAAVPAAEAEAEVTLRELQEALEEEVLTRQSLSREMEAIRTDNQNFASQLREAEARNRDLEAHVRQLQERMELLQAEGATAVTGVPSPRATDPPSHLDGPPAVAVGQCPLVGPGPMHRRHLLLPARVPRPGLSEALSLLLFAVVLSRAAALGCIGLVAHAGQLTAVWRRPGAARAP
T2 sequence (O14757 whole entry): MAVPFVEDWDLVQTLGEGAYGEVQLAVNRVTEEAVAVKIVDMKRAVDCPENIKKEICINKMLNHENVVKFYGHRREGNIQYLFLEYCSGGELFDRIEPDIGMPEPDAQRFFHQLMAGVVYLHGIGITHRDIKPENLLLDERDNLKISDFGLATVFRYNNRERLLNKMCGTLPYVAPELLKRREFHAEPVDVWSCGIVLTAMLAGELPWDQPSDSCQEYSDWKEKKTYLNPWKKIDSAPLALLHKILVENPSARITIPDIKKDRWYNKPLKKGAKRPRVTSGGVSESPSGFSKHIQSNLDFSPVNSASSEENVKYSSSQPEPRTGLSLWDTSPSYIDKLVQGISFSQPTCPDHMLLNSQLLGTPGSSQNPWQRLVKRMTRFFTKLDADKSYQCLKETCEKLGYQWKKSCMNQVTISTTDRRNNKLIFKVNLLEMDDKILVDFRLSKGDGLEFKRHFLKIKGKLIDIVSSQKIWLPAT
T1 sequence (P54646 whole entry): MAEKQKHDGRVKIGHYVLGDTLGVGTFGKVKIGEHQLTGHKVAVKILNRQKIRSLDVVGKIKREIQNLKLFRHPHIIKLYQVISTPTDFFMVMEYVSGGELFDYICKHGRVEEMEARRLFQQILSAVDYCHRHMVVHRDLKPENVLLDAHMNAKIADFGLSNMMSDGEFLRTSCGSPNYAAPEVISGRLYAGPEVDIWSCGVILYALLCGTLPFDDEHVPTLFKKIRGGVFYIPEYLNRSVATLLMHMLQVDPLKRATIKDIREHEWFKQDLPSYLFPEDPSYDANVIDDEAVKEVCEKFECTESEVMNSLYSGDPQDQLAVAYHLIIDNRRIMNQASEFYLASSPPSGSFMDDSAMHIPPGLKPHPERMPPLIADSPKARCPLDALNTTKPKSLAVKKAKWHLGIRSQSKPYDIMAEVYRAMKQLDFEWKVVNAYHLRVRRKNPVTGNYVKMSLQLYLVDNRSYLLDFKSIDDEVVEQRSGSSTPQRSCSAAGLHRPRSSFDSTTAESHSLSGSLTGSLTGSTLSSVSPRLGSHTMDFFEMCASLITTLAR
Chain of PIM2 (Q9P1W9 whole entry): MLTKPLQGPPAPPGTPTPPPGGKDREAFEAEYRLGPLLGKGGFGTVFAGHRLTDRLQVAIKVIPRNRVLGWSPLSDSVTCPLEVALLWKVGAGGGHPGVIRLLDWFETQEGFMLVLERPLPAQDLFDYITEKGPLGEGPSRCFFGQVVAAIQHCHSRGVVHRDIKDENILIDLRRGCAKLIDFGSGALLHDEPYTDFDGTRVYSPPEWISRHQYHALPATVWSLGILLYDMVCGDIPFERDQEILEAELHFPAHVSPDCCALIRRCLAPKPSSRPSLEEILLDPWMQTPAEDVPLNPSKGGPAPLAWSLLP
T3 sequence (Q13163 whole entry): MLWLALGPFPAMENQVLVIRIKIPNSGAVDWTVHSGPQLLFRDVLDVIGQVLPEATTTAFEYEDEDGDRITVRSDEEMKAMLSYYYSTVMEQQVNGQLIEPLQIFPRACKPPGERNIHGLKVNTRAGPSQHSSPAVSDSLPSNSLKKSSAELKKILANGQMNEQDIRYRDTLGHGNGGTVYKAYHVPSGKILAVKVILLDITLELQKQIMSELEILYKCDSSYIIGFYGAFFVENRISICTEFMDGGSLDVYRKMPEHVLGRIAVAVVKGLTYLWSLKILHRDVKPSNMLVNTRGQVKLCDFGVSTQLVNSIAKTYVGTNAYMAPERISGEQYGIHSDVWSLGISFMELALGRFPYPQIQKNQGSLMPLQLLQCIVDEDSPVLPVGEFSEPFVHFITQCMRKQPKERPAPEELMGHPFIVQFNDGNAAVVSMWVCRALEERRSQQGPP

For the compound `COc1ccc2[nH]c3c4[nH]c5ccc(OC)cc5c4c4c(c3c2c1)C(=O)NC4=O` [GW296115], the inhibition at 1 µM in [1] was 20%; in test [2], 70%; in test [6], 83%; in test [7] it was 75%; in test [8] it was 82%; in [9], 83%. For the same compound, the IC50 in test [3] was > 10000 nM; in [4], 1800 ± 120 nM. The “Nanosyn % Inhibition at 1 μM” value in test [5] is 92%; in test [10], 102%.

The values are drawn from PMC7522982, “PKIS deep dive yields a chemical starting point for dark kinases and a cell active BRSK2 inhibitor” (Scientific Reports, 2020).
